Laboratory results as given in US12259330B2 (ARIZONA BOARD OF REGENTS ON BEHALF OF ARIZONA STATE …, priority 2021, dated 2025).

Target: T1, PCSK9 (Homo sapiens, UniProt Q8NBP7)
T1 construct: gift from Dr. Daniel Kirchhofer, Genentech
Test: SPR measurement of PCSK9 binding to synthesized pep2-8
Conditions: synthesized peptide on streptavidin-coated gold surface, average and standard deviation over PCSK9 concentrations
Description: The synthesized peptide was immobilized to a streptavidin-coated gold surface. Different concentrations of PCSK9 were flowed to the surface to measure the binding kinetics.
The SPR sensor chip was fabricated by coating 1.5 nm Cr and then 47 nm Au on cover glass (no. 1 VWR) using an e-beam evaporator. Prior to surface functionalization, the gold surface was cleaned with ethanol and DI water twice, dried by N2, and annealed by H2 flame. The gold chip was immersed in a mixture of 0.2 mM SH-PEG8-COOH and 0.2 mM MT(PEG)4 overnight. Then, —COOH was activated using NHS/EDC chemistry (50 mM NHS and 200 mM EDC) for 20 min and incubated with 0.1 mg/mL streptavidin in PBS for 30 min to allow immobilization. The remaining unreacted sites were quenched with 10 mM ethanolamine and the nonspecific binding sites were blocked with SuperBlock for 10 min. […] The functionalized chip was finally rinsed with PBS before the measurement.

T1 sequence (Q8NBP7 153-692, species assumed): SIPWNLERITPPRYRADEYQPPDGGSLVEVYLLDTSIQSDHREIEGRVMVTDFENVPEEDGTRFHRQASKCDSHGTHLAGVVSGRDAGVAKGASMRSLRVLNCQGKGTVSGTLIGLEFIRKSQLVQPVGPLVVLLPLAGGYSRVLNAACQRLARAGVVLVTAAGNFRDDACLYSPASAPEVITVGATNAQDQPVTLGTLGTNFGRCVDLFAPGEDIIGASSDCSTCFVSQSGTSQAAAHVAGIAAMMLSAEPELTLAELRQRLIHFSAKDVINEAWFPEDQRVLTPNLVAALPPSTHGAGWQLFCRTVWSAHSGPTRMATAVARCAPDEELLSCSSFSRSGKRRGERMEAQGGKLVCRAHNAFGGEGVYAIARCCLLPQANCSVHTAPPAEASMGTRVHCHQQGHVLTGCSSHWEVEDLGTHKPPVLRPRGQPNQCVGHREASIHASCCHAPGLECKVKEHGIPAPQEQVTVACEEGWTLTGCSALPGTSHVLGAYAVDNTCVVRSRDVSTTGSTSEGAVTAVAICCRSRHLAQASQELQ

For `CC(=O)N[C@H](C(=O)N[C@H](C(=O)N[C@@H](Cc1ccccc1)C(=O)N[C@H](C(=O)N[C@@H](CO)C(=O)N[C@@H](Cc1c[nH]c2ccccc12)C(=O)N[C@@H](CCC(=O)O)C(=O)N[C@@H](CCC(=O)O)C(=O)N[C@@H](Cc1ccc(O)cc1)C(=O)N[C@@H](CC(C)C)C(=O)N[C@@H](CC(=O)O)C(=O)N[C@@H](Cc1c[nH]c2ccccc12)C(=O)N[C@H](C(N)=O)C(C)C)[C@@H](C)O)C(C)C)[C@@H](C)O` [pep2-8], the kd was “(1.73±0.25)×10^−1 s^−1”.
